From ChEMBL document CHEMBL1949591, “Reversal of multidrug resistance by morning glory resin glycosides in human breast cancer cells” (J Nat Prod, 2012) come the findings set out here.

Series [1] deals with MCF7. The experiment in a line: Cytotoxicity against vinblastine-resistant human MCF7 cells after 72 hrs by SRB assay. In kind it is functional, cell-based. The note with it: MCF7, 72 h. (The SRB assay estimates cell density from bound dye.)
Series [2] deals with MCF7. The series can be described thus: Reversal of p-glycoprotein-mediated drug resistant in vinblastine-resistant human MCF7 cells assessed as ratio of IC50 for vinblastin to IC50 for vinblastin in presence of compound at 25 ug/ml after 72 hrs by SRB assay. In kind it is cell-based.
Series [3] has as its system MCF7. The experiment in a line: Reversal of p-glycoprotein-mediated drug resistant in human MCF7 cells grown in vinblastine-free medium assessed as ratio of IC50 for vinblastin to IC50 for vinblastin in presence of compound at 25 ug/ml after 72 hrs by SRB assay. In kind it is cell-based.
Series [4] deals with MCF7. The experiment in a line: Reversal of p-glycoprotein-mediated drug resistant in vinblastine-sensitive human MCF7 cells assessed as ratio of IC50 for vinblastin to IC50 for vinblastin in presence of compound at 25 ug/ml after 72 hrs by SRB assay. The series is classed as cell-based.
In series [5] the target is T1, ATP-dependent translocase ABCB1 (Homo sapiens, UniProt P08183). The experiment in a line: Inhibition of p-glycoprotein in vinblastine-sensitive human MCF7 cells assessed as decrease in rhodamine 123 accumulation at 5 ug/ml after 30 mins by flow cytometry. The series is classed as cell-based. The note with it: mcf7, 0.5 h.
T1 sequence (P08183 whole entry): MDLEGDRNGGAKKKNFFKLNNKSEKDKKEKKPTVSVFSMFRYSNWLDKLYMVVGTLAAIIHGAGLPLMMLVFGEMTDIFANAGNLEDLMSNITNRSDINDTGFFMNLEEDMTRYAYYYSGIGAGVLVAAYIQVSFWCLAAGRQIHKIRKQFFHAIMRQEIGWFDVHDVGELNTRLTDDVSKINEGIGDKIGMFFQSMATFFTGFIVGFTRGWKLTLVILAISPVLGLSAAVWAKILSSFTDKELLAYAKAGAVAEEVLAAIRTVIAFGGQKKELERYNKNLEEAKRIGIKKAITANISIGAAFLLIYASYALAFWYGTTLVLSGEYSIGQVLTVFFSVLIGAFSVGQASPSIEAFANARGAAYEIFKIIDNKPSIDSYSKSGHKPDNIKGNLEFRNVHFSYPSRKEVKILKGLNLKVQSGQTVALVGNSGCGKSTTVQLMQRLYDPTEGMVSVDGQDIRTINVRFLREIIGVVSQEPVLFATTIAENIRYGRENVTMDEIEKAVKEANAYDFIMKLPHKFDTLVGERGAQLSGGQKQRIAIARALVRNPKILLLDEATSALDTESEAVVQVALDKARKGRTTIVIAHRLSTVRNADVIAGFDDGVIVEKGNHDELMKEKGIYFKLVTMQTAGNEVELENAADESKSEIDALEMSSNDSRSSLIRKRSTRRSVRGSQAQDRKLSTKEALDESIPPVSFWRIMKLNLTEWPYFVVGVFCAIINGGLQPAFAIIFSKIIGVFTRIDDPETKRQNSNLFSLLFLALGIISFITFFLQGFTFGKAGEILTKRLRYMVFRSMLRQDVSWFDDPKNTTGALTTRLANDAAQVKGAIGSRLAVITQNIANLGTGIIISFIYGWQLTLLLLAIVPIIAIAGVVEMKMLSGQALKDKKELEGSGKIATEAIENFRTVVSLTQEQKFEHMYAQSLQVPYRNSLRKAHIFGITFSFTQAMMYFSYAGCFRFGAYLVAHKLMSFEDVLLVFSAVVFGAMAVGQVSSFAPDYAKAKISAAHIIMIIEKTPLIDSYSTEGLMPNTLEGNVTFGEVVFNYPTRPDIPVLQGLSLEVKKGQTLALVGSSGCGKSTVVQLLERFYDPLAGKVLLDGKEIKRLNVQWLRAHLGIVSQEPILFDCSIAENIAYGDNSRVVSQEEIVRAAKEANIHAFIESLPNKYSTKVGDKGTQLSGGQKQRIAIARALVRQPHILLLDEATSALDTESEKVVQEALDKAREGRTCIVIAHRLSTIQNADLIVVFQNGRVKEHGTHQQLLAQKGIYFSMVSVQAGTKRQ
Series [6] deals with MCF7. The experiment in a line: Inhibition of p-glycoprotein expression in vinblastine-sensitive human MCF7 cells at 5 ug/ml after 24 hrs by immunofluorescence flow cytometry relative to control. In kind it is functional. The note with it: MCF7, 24 h. (In general: In flow cytometry, cells or beads pass a laser one at a time.)
Series [7] concerns the target T1, ATP-dependent translocase ABCB1. The series can be described thus: Inhibition of p-glycoprotein in vinblastine-sensitive human MCF7 cells assessed as decrease in rhodamine 123 accumulation at 25 ug/ml after 30 mins by flow cytometry. In kind it is cell-based. The settings on record: mcf7, 0.5 h.
Series [8] shares this target. The experiment in a line: Inhibition of p-glycoprotein in vinblastine-sensitive human MCF7 cells assessed as decrease in rhodamine 123 accumulation at 25 ug/ml after 30 mins followed by washout measured after […] by flow cytometry. In kind it is cell-based. The settings on record: mcf7, 0.5 h.
Series [9] relates to MCF7. The experiment in a line: Inhibition of p-glycoprotein expression in vinblastine-sensitive human MCF7 cells at 25 ug/ml after 24 hrs by immunofluorescence flow cytometry relative to control. The settings on record: MCF7, 24 h. In kind it is functional.

≈ marks a conversion by molar mass, not a printed value. Some results are limits rather than exact numbers.

The IC50 is the concentration needed to halve the response being measured. A high value points to weaker potency in that assay. As to `CCCCC[C@H]1CCCCCCCCCC(=O)O[C@@H]2[C@@H](O[C@@H]3O[C@H](C)[C@@H](OC(=O)[C@@H](C)CC)[C@H](O)[C@H]3O)[C@H](C)O[C@@H](O[C@H]3[C@H](O[C@H]4[C@H](O1)O[C@H](C)[C@@H](O)[C@@H]4O)O[C@H](COC(=O)[C@H](C)[C@@H](C)O)[C@@H](O)[C@@H]3O)[C@@H]2OC(=O)[C@@H](C)CC` [ORIZABIN XX], the IC50 with MCF7 [1] amounted to 1.5 µg/mL (≈ 1.34 µM).
The molecule `C/C=C(\C)C(=O)O[C@H]1[C@H](O)[C@@H](O)[C@H](O[C@@H]2[C@H]3OC(=O)CCCCCCCCC[C@H](CCCCC)O[C@@H]4O[C@H](C)[C@@H](O)[C@H](O)[C@H]4O[C@@H]4O[C@H](COC(=O)[C@@H](C)[C@H](C)O)[C@@H](O)[C@H](O)[C@H]4O[C@H](O[C@H]2C)[C@@H]3OC(=O)[C@@H](C)CC)O[C@@H]1C` [ORIZABIN XVII] registered an IC50 in the series on MCF7 [1] of 1.5 µg/mL (≈ 1.34 µM).
As for `C/C=C(\C)C(=O)O[C@H]1[C@H](O)[C@@H](O)[C@H](O[C@@H]2[C@H]3OC(=O)CCCCCCCCC[C@H](CCCCC)O[C@@H]4O[C@H](C)[C@@H](O)[C@H](O)[C@H]4O[C@@H]4O[C@H](COC(=O)[C@@H](C)CC)[C@@H](O)[C@H](O)[C@H]4O[C@H](O[C@H]2C)[C@@H]3OC(=O)[C@H](C)[C@@H](C)O)O[C@@H]1C` [ORIZABIN XIV], in the series with MCF7 [1], the IC50 stood at 1.5 µg/mL (≈ 1.34 µM).
Take `C/C=C(\C)C(=O)O[C@H]1[C@H](O)[C@@H](O)[C@H](O[C@@H]2[C@H]3OC(=O)CCCCCCCCC[C@H](CCCCC)O[C@@H]4O[C@H](C)[C@@H](O)[C@H](O)[C@H]4O[C@@H]4O[C@H](COC(=O)[C@H](C)[C@@H](C)O)[C@@H](O)[C@H](O)[C@H]4O[C@H](O[C@H]2C)[C@@H]3OC(=O)[C@@H](C)CC)O[C@@H]1C` [ORIZABIN XVI]: in the series with MCF7 [1], the IC50 was 1.5 µg/mL (≈ 1.34 µM).
Regarding `CCCCC[C@H]1CCCCCCCCCC(=O)O[C@H]2[C@H](O)[C@@H](CO)O[C@@H](O[C@H]3[C@H](O1)O[C@H](C)[C@H](O)[C@@H]3O)[C@@H]2O[C@@H]1O[C@@H](C)[C@H](OC(=O)[C@@H](C)CC)[C@@H](O[C@@H]2O[C@@H](C)[C@H](O)[C@@H](O)[C@H]2O)[C@H]1OC(=O)[C@@H](C)CC`, the Ratio IC50 in the series on MCF7 [2] is greater than 1910; in the series on MCF7 [3] it was greater than 1590; with MCF7 [4], 47.
Molecule `C/C=C(\C)C(=O)O[C@H]1[C@H](O)[C@@H](O)[C@H](O[C@@H]2[C@H]3OC(=O)CCCCCCCCC[C@H](CCCCC)O[C@@H]4O[C@H](C)[C@@H](O)[C@H](O)[C@H]4O[C@@H]4O[C@H](COC(=O)C(C)C)[C@@H](O)[C@H](O)[C@H]4O[C@H](O[C@H]2C)[C@@H]3OC(=O)[C@@H](C)[C@H](C)O)O[C@@H]1C` [ORIZABIN XI] showed an IC50 in the series on MCF7 [1] of 1.5 µg/mL (≈ 1.35 µM).
In general, inhibition refers to the share of the control response that was lost under treatment. For the molecule `COC(=O)[C@H]1[C@H]2C[C@@H]3c4[nH]c5cc(OC)ccc5c4CCN3C[C@H]2C[C@@H](OC(=O)c2cc(OC)c(OC)c(OC)c2)[C@@H]1OC` [RESERPINE], the “inhibition (INH)” value in series [5] is “Active”. Further, in the series with MCF7 [6], the inhibition at 5 µg/mL came out at 38%.
For the molecule `CCCCC[C@H]1CCCCCCCCCC(=O)O[C@H]2[C@@H](O)[C@H](O[C@H]3[C@H](O1)O[C@H](C)[C@H](O)[C@@H]3O)O[C@@H](C)[C@@H]2O[C@@H]1O[C@@H](C)[C@H](O[C@@H]2O[C@@H](C)[C@H](OC(=O)[C@@H](C)CC)[C@@H](O)[C@H]2O)[C@@H](O[C@@H]2O[C@H](CO)[C@@H](O)[C@H](O)[C@H]2O)[C@H]1OC(=O)[C@@H](C)CC` [MURUCOIDIN V], the results for the Ratio IC50 in the series on MCF7 [2], in the series with MCF7 [3] and in the series with MCF7 [4] were 7.8, 255 and 47, respectively. In addition, the “inhibition (INH)” value in [7] and in [8] was “Active” in each case. Besides, in the series with MCF7 [9], testing at 25 µg/mL gave an inhibition of 30%.
Take `CCCCC[C@H]1CCCCCCCCCC(=O)O[C@H]2[C@H](O[C@H]3[C@H](O1)O[C@H](C)[C@H](O)[C@@H]3O)O[C@@H](C)[C@H](O[C@@H]1O[C@@H](C)[C@H](O[C@@H]3O[C@@H](C)[C@H](OC(=O)[C@@H](C)CC)[C@@H](O)[C@H]3O)[C@@H](O[C@@H]3O[C@H](CO)[C@@H](O)[C@H](O)[C@H]3O)[C@H]1OC(=O)[C@@H](C)CC)[C@H]2O`: the values for the Ratio IC50 with MCF7 [2], with MCF7 [3] and with MCF7 [4] were greater than 1910, greater than 1590 and greater than 73.4, respectively.
In the case of `C/C=C(\C)C(=O)O[C@H]1[C@H](O)[C@@H](O)[C@H](O[C@@H]2[C@H]3OC(=O)CCCCCCCCC[C@H](CCCCC)O[C@@H]4O[C@H](C)[C@@H](O)[C@H](O)[C@H]4O[C@@H]4O[C@H](COC(=O)C(C)C)[C@@H](O)[C@H](O)[C@H]4O[C@H](O[C@H]2C)[C@@H]3OC(=O)[C@H](C)[C@@H](C)O)O[C@@H]1C` [ORIZABIN X], half-maximal inhibition with MCF7 [1] (IC50) was put at 1.5 µg/mL (≈ 1.35 µM).
Regarding `CCCCC[C@H]1CCCCCCCCCC(=O)O[C@@H]2[C@@H](O[C@@H]3O[C@H](C)[C@@H](OC(=O)[C@@H](C)CC)[C@H](O)[C@H]3O)[C@H](C)O[C@@H](O[C@H]3[C@H](O[C@H]4[C@H](O1)O[C@H](C)[C@@H](O)[C@@H]4O)O[C@H](COC(=O)[C@@H](C)[C@H](C)O)[C@@H](O)[C@@H]3O)[C@@H]2OC(=O)[C@@H](C)CC` [ORIZABIN XXI], in the series with MCF7 [1], half-maximal inhibition (IC50) was put at 1.5 µg/mL (≈ 1.34 µM).
For the molecule `CCCCC[C@H]1CCCCCCCCCC(=O)O[C@H]2[C@H](O[C@H]3[C@H](O1)O[C@H](CO)[C@@H](O)[C@@H]3O)O[C@@H](C)[C@H](O[C@@H]1O[C@@H](C)[C@H](O[C@@H]3O[C@@H](C)[C@H](OC(=O)[C@@H](C)CC)[C@@H](O)[C@H]3O)[C@@H](O[C@@H]3O[C@@H](C)[C@H](O)[C@@H](O)[C@H]3O)[C@H]1OC(=O)[C@@H](C)CC)[C@H]2O`, the Ratio IC50 in the series with MCF7 [2] was greater than 1910; with MCF7 [3], greater than 1590; with MCF7 [4], greater than 73.4.
For `CCCCC[C@H]1CCCCCCCCCC(=O)O[C@H]2[C@H](O[C@H]3[C@H](O1)O[C@H](C)[C@H](O)[C@@H]3O)O[C@@H](C)[C@H](O[C@@H]1O[C@@H](C)[C@H](O[C@@H]3O[C@@H](C)[C@H](OC(=O)[C@@H](C)CC)[C@@H](O)[C@H]3O)[C@@H](OC(=O)[C@@H](C)CC)[C@H]1O)[C@H]2O`, the results for the Ratio IC50 in the series on MCF7 [2], in the series on MCF7 [3] and with MCF7 [4] were greater than 1910, greater than 1590 and greater than 73.4, respectively.
